Measured values: patent US20260199482A1, “BILE ACID-METRONIDAZOLE CONJUGATE AND USE THEREOF” (SOUTH CHINA UNIVERSITY OF TECHNOLOGY, priority 2022, published 2026)
≈ marks a conversion by molar mass, not a printed value. Read-outs that look alike come from different tables or passages of the source.

Assays:
[1] = system: Clostridioides difficile ATCC 43255; experiment: MIC determination using broth microdilution method, anaerobic bacteria; type: cell-based; conditions: for MIC: ATCC43255, Clostridioides difficile ATCC 43255, broth microdilution, anaerobic, 37° C., 48 h; for inhibitory effect on Clostridioides difficile (ATCC 43255), in words: comment on Table 1
Protocol: 0.10 g of sterile cycloserine and 3.20 mg of sterile cefoxitin (filtered by a filter membrane and sterilized) were added to every 200 mL, mixed well, and poured into a sterile petri dish for later use.
S3, culture of Clostridioides difficile strain: 1) the strain stored at −80° C. was resuscitated in an anaerobic glove box with a cycloserine-cefoxitin-fructose agar medium plate, and statically cultured at 37° C. in a constant-temperature incubator for 48 h; • 2) single colonies were picked, and statically cultured in the brain heart infusion broth medium overnight at 37° C. in the constant-temperature incubator; and • 3) the bacterial solution that was statically cultured overnight was transferred into the anaerobic glove box with the brain heart infusion broth medium at a ratio of 1:100, and cultured for 3-4 h until the OD600 was between 0.6 and 0.8; and during this process, 5 g/L of yeast extract solution was added to increase a strain concentration.
(§1) The culture process of the strain was operated in the anaerobic glove box. After the operation was completed, the strain was well sealed with an anaerobic bag or an anaerobic box, taken out and then cultured in the constant-temperature incubator.

[2] = system: Bacteroides fragilis ATCC 25285; experiment: as above; type: cell-based
Protocol: as §1

[3] = system: Porphyromonas gingivalis ATCC 33277; experiment: as above; type: cell-based
Protocol: S5, Culture of Porphyromonas gingivalis strain: • the strain stored at −80° C. was resuscitated in the anaerobic glove box with a Colombian blood agar plate, and statically cultured at 37° C. in the constant-temperature incubator for 5-7 days.
as §1

H. pylori ATCC 26695 = experiment: MIC determination using broth microdilution method, Helicobacter pylori; type: cell-based
Protocol: (§2) • 1) A frozen solution stored at −80° C. was taken out, and thawed at room temperature; 100 μL of bacterial solution was taken with a pipette, coated onto a Columbia blood agar plate (finished-product medium), put invertedly in a […] culture box, placed in a micro-aerobic gas production bag to achieve a micro-aerobic environment, and cultured at 37° C. for 2-3 days. • 2) A sterile inoculation ring was used to pick Helicobacter pylori single colonies (transparent water droplets) grown on the Colombian blood agar medium and inoculated in the above liquid medium; and cultured at 37° C. in a micro-aerobic environment for 3 days. • 3) A required concentration (absorbance) for the experiment was reached after culture, and the bacterial solution was taken for subsequent experiments.
(§3) The drug concentration at which bacteria ceased to grow or grew at the most significant reduction level was referred to as the MIC value.

H. pylori ATCC 43504 = experiment: as above; type: cell-based; conditions: for MIC: Helicobacter pylori, ATCC43504; for inhibitory activity against drug-resistant bacteria, in words: metronidazole-resistant H. pylori ATCC 43504, versus metronidazole
Protocol: as §2, §3

H. pylori NCTC 11637 = experiment: as above; type: cell-based; conditions: for MIC: Helicobacter pylori, NCTC11637; for inhibitory activity against drug-resistant bacteria, in words: metronidazole-resistant H. pylori NCTC 11637, versus metronidazole
Protocol: as §2, §3

[4] = system: H. pylori Sydney strain SS1; experiment: as above; type: cell-based
Protocol: as §2, §3

[5] = system: Clostridioides difficile infection (spores, 027 Type); experiment: Clostridioides difficile infection (CDI) mouse model; type: in vivo, C57BL/6 mice; conditions: for number of surviving mice: 10 animals per group
From the text: • 1) Experimental animals: C57BL/6, 4-6 weeks old, female.
In order to evaluate the efficacy of the compounds of the present application on Clostridioides difficile infection, an animal model of Clostridioides difficile infection was established, as shown in FIG. 1. […] On Day 0, the mice were administrated with 10^5 CFU/mL of spores by gavage; and on Days 1 and 2, the mice were administrated with 10^6 CFU/mL of spores by gavage. Starting from Day 3, the mice were given 7 days of drug treatment, and all mice were euthanized at the end of the experiment, except for the death of mice during the treatment.
Two of the conjugates, SCUT1-2 and SCUT1-6, with the optional in-vitro inhibitory activities were selected. […] The therapeutic effect of the conjugate of the present application in the treatment of Clostridioides difficile infection was evaluated.

[6] = ATCC25285, Bacteroides fragilis ATCC 25285, broth microdilution, anaerobic, 37° C., 48 h, read-out: MIC
[7] = ATCC33277, Porphyromonas gingivalis ATCC 33277, broth microdilution, anaerobic, 37° C., 48 h, read-out: MIC
[8] = ATCC26695, H. pylori ATCC 26695(S), metronidazole-susceptible strain, read-out: MIC
[9] = H. pylori ATCC 43504(R), metronidazole-resistant strain, read-out: MIC
[10] = H. pylori NCTC 11637(R), metronidazole-resistant strain, read-out: MIC
[11] = H. pylori Sydney strain SS1, read-out: MIC
[12] = Day 3 (before the administration), 50 mg/kg groups

Compound | MIC [1] [µg/mL] | MIC [2, 6] [µg/mL] | MIC [3, 7] [µg/mL] | MIC (H. pylori ATCC 26695; [8]) [µg/mL] | MIC (H. pylori ATCC 43504; [9]) [µg/mL] | MIC (H. pylori NCTC 11637; [10]) [µg/mL] | MIC [4, 11] [µg/mL] | other results
C[C@H](CCC(=O)O)[C@H]1CC[C@H]2[C@@H]3[C@@H](O)C[C@@H]4C[C@H](O)CC[C@]4(C)[C@H]3CC[C@]12C [UDCA, ursodeoxycholic acid, reference compound] | 16 (≈ 40.8 µM) | > 32 | > 32 | > 32 | > 128 | > 128 | > 32 | number of mice with diarrhea [5, 12]: 9 number of mice; number of surviving mice [5, 12]: 10 number of mice; number of mice with diarrhea ([5]; Day 4, 50 mg/kg): 9 number of mice; number of surviving mice ([5]; Day 4, 50 mg/kg): 10 number of mice; number of mice with diarrhea ([5]; Day 5, 50 mg/kg): 7 number of mice; number of surviving mice ([5]; Day 5, 50 mg/kg): 10 number of mice; number of mice with diarrhea ([5]; Day 6, 50 mg/kg): 6 number of mice; number of surviving mice ([5]; Day 6, 50 mg/kg): 10 number of mice; number of mice with diarrhea ([5]; Day 7, 50 mg/kg): 4 number of mice; number of surviving mice ([5]; Day 7, 50 mg/kg): 10 number of mice; number of mice with diarrhea ([5]; Day 8, 50 mg/kg): 5 number of mice; number of surviving mice ([5]; Day 8, 50 mg/kg): 10 number of mice; number of mice with diarrhea ([5]; Day 9, 50 mg/kg): 5 number of mice; number of surviving mice ([5]; Day 9, 50 mg/kg): 10 number of mice
Cc1ncc([N+](=O)[O-])n1CCOC(=O)CC[C@@H](C)[C@H]1CC[C@H]2[C@@H]3CC[C@@H]4C[C@H](O)CC[C@]4(C)[C@H]3CC[C@]12C [SCUT1-1] | 0.5 (≈ 0.944 µM) |  |  |  |  |  |  | MIC ([2]; Bacteroides fragilis, ATCC25285, 48 h): 1 µg/mL (≈ 1.89 µM); MIC ([3]; Porphyromonas gingivalis, ATCC33277, 48 h): 2 µg/mL (≈ 3.78 µM); MIC (H. pylori ATCC 26695; ATCC26695): 8 µg/mL (≈ 15.1 µM); MIC (H. pylori ATCC 43504): > 128 µg/mL; MIC (H. pylori NCTC 11637): 16 µg/mL (≈ 30.2 µM); MIC [4]: 8 µg/mL (≈ 15.1 µM)
Cc1ncc([N+](=O)[O-])n1CCOC(=O)CC[C@@H](C)[C@H]1CC[C@H]2[C@@H]3C(=O)C[C@@H]4C[C@H](O)CC[C@]4(C)[C@H]3C[C@H](O)[C@]12C [SCUT1-8] | 1 (≈ 1.79 µM) | 1 (≈ 1.79 µM) | 1 (≈ 1.79 µM) | 8 (≈ 14.3 µM) | 16 (≈ 28.6 µM) | 64 (≈ 114 µM) | 8 (≈ 14.3 µM) | 
Cc1ncc([N+](=O)[O-])n1CCOC(=O)CC[C@@H](C)[C@H]1CC[C@H]2[C@@H]3C[C@H](O)[C@@H]4C[C@H](O)CC[C@]4(C)[C@H]3CC[C@]12C [SCUT1-5] | 0.25 (≈ 0.458 µM) | 2 (≈ 3.66 µM) | 2 (≈ 3.66 µM) | 8 (≈ 14.7 µM) | 4 (≈ 7.33 µM) | 32 (≈ 58.6 µM) | 16 (≈ 29.3 µM) | 
Cc1ncc([N+](=O)[O-])n1CCOC(=O)CC[C@@H](C)[C@H]1CC[C@H]2[C@@H]3[C@H](O)C[C@H]4C[C@H](O)CC[C@]4(C)[C@H]3CC[C@]12C [SCUT1-4] | 2 (≈ 3.66 µM) | 2 (≈ 3.66 µM) | 0.5 (≈ 0.916 µM) | 4 (≈ 7.33 µM) | 4 (≈ 7.33 µM) | 4 (≈ 7.33 µM) | 4 (≈ 7.33 µM) | inhibitory activity against drug-resistant bacteria, in words (H. pylori ATCC 43504): significantly promoted; inhibitory activity against drug-resistant bacteria, in words (H. pylori NCTC 11637): significantly promoted
Cc1ncc([N+](=O)[O-])n1CCOC(=O)CC[C@@H](C)[C@H]1CC[C@H]2[C@@H]3[C@@H](O)C[C@@H]4C[C@H](O)CC[C@]4(C)[C@H]3CC[C@]12C [SCUT1-2] | 0.12 (≈ 0.22 µM) | 1 (≈ 1.83 µM) | 0.25 (≈ 0.458 µM) | 4 (≈ 7.33 µM) | 8 (≈ 14.7 µM) | 16 (≈ 29.3 µM) | 8 (≈ 14.7 µM) | inhibitory effect on Clostridioides difficile (ATCC 43255), in words [1]: particularly prominent; death of mice during the treatment ([5]; 50 mg/kg, 7 days of drug treatment): no mice died; therapeutic effect, in words ([5]; 50 mg/kg, compared with Metronidazole, UDCA and MIX groups): a good therapeutic effect; number of mice with diarrhea [5, 12]: 10 (10) number of mice; number of surviving mice [5, 12]: 10 (10) number of mice; number of mice with diarrhea ([5]; Day 4, 50 mg/kg): 7 number of mice; number of surviving mice ([5]; Day 4, 50 mg/kg): 10 number of mice; number of mice with diarrhea ([5]; Day 5, 50 mg/kg): 4 number of mice; number of surviving mice ([5]; Day 5, 50 mg/kg): 10 number of mice; number of mice with diarrhea ([5]; Day 6, 50 mg/kg): 2 number of mice; number of surviving mice ([5]; Day 6, 50 mg/kg): 10 number of mice; number of mice with diarrhea ([5]; Day 7, 50 mg/kg): 1 number of mice; number of surviving mice ([5]; Day 7, 50 mg/kg): 10 number of mice; number of mice with diarrhea ([5]; Day 8, 50 mg/kg): 1 number of mice; number of surviving mice ([5]; Day 8, 50 mg/kg): 10 number of mice; number of mice with diarrhea ([5]; Day 9, 50 mg/kg): 1 number of mice; number of surviving mice ([5]; Day 9, 50 mg/kg): 10 number of mice; diarrhea rate ([5]; at the endpoint of treatment, 50 mg/kg, Model group 100%): 10%
C[C@H](CCC(=O)O)[C@H]1CC[C@H]2[C@@H]3[C@H](O)[C@H](O)[C@@H]4C[C@H](O)CC[C@]4(C)[C@H]3CC[C@]12C [HCA, hyocholic acid, reference compound] | 32 (≈ 78.3 µM) | > 32 | > 32 |  |  |  |  | 
Cc1ncc([N+](=O)[O-])n1CCOC(=O)CC[C@@H](C)[C@H]1CC[C@H]2[C@@H]3[C@H](O)C[C@@H]4C[C@H](O)CC[C@]4(C)[C@H]3CC[C@]12C [SCUT1-3] | 0.12 (≈ 0.22 µM) | 4 (≈ 7.33 µM) | 0.5 (≈ 0.916 µM) | 4 (≈ 7.33 µM) | 4 (≈ 7.33 µM) | 8 (≈ 14.7 µM) | 8 (≈ 14.7 µM) | inhibitory effect on Clostridioides difficile (ATCC 43255), in words [1]: particularly prominent; inhibitory activity against drug-resistant bacteria, in words (H. pylori ATCC 43504): significantly promoted; inhibitory activity against drug-resistant bacteria, in words (H. pylori NCTC 11637): significantly promoted
C[C@H](CCC(=O)O)[C@H]1CC[C@H]2[C@@H]3[C@H](O)C[C@@H]4C[C@H](O)CC[C@]4(C)[C@H]3CC[C@]12C [CDCA, chenodeoxycholic acid, reference compound] | 8 (≈ 20.4 µM) | > 32 | > 32 |  |  |  |  | 
